From patent US4277468A, “11-Methylene steroids, their preparation and pharmaceutical preparations containing them” (Schering Aktiengesellschaft, priority 1979, dated 1981)

How the values were obtained:
ovulation = assay: Ovulation inhibition test on rats, subcutaneous application, determined by tubal inspection; type: in vivo
Experimental: OVULATION INHIBITION IN RATS AFTER
SUBCUTANEOUS APPLICATION
The ovulation inhibition was determined by tubal inspection.

Androgenic side effects = settings: in words, relative to B

C#C[C@]1(O)CC[C@H]2[C@@H]3CCC4=CC(=O)CC[C@@H]4[C@H]3C(=C)C[C@@]21CC [B, 17α-ethynyl-17β-hydroxy-18-methyl-11-methylene-4-estren-3-one, reference compound]
Ovulation inhibition in rats after subcutaneous application (% inhibition) (ovulation; dose 0.03 mg): 0%
Ovulation inhibition in rats after subcutaneous application (% inhibition) (ovulation; dose 0.1 mg): 100%

C=C1C[C@@]2(CC)[C@@H](CC[C@@]2(O)C#CCl)[C@@H]2CCC3=CC(=O)CC[C@@H]3[C@@H]12 [A, 17α-chloroethynyl-17β-hydroxy-18-methyl-11-methylene-4-estren-3-one]
Ovulation inhibition in rats after subcutaneous application (% inhibition) (ovulation; dose 0.03 mg): 83%
Ovulation inhibition in rats after subcutaneous application (% inhibition) (ovulation; dose 0.1 mg): 100%
Ovulation inhibition strength relative to ethynyl compound B (ovulation; seen from the table): at least three times stronger than ethynyl compound B
Androgenic side effects compared with B (Androgenic side effects): less androgenic side effects than B
